Test results reported in patent publication US12138256B2, “Treatment of cardiopulmonary disorders” (Bayer Aktiengesellschaft, priority 2021, dated 2024).
Values joined by “and” are separate entries in the source; they are usually repeats but may differ in a detail not shown here. Identical values can stand only once.

System: thromboxane analog U46619 induced PAH in minipigs
Assay: Haemodynamics (PAP, BP) in the anesthetized thromboxane challenged PAH minipig after inhaled (nebulized) application (C-2.1)
Type: in vivo, Göttingen minipig
Conditions: for PAP % change vs. baseline / PAP % changes vs prevalue, mean / BP % change vs. baseline: 100 μg/kg nominal dose; for PAP % change vs. baseline / BP % change vs. baseline: individual animals; for PAP % changes vs prevalue, mean: n = 3; for % changes in BP vs baseline / % changes in PAP vs baseline: inhaled 30 μg/kg
In short: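 Anesthetized, ventilated Göttingen minipigs (2-6 kg) given continuous infusion (0.3-0.75 μg/kg/min) to raise mean PAP above 25 mmHg, dosing starting after a 30 min plateau. Compound in 1% DMSO/0.2% citric acid, pH 8, nebulized via Aeroneb Pro into the inspiratory arm (~7 min; stock 300 μg/kg). PAP by Swan-Ganz catheter, BP via carotid catheter.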

With O=C(O)c1ccc(CCN(CCc2ccccc2OCc2ccc(-c3ccc(C(F)(F)F)cc3)cc2Cl)[C@H]2CCCc3nc(C(=O)O)ccc32)cc1 [comparative example 11, (5S)-5-{[2-(4-carboxyphenyl)ethyl][2-(2-{[3-chloro-4′-(trifluoromethyl)[biphenyl]-4-yl]methoxy}phenyl)ethyl]amino}-5,6,7,8-tetrahydroquinoline-2-carboxylic acid] the “PAP % change vs. baseline” value (inhaled, time 190 min) was 77.0% and 61.7% and 68.1%, the “PAP % changes vs prevalue, mean” value (inhaled, time 190 min) was −30.5% and the “BP % change vs. baseline” value (inhaled, time 200 min) was 99.9% and 90.4% and 98.2%. For the same compound, the “PAP % change vs. baseline” value (inhaled, time 200 min) was 77.0% and 62.5% and 68.2%, the “PAP % changes vs prevalue, mean” value (inhaled, time 200 min) was −30.9% and the “BP % change vs. baseline” value (inhaled, time 210 min) was 98.8% and 90.4% and 97.3%. The “PAP % change vs. baseline” value (inhaled, time 210 min) was 76.5% and 62.0% and 67.9%, the “PAP % changes vs prevalue, mean” value (inhaled, time 210 min) was −30.6% and the “BP % change vs. baseline” value (inhaled, time 220 min) was 101.0% and 90.4% and 97.3%. The “PAP % change vs. baseline” value (inhaled, time 220 min) was 77.2% and 61.2% and 68.1%, the “PAP % changes vs prevalue, mean” value (inhaled, time 220 min) was −31.6% and the “BP % change vs. baseline” value (inhaled, time 230 min) was 99.9% and 90.4% and 96.3%. The “PAP % change vs. baseline” value (inhaled, time 230 min) was 76.3% and 61.2% and 67.7%, the “PAP % changes vs prevalue, mean” value (inhaled, time 230 min) was −31.2% and the “BP % change vs. baseline” value (inhaled, time 240 min) was 98.8% and 89.5% and 95.4%. For the same compound, the “PAP % change vs. baseline” value (inhaled, time 240 min) was 76.5% and 62.5% and 67.8%, the “PAP % changes vs prevalue, mean” value (inhaled, time 240 min) was −31.0% and the “BP % change vs. baseline” value (inhaled, time 250 min) was 98.8% and 89.5% and 95.4%. For the same compound, the “PAP % change vs. baseline” value (inhaled, time 250 min) was 77.6% and 63.0% and 69.1%, the “BP % change vs. baseline” value (inhaled, time 260 min) was 97.7% and 87.7% and 95.4% and the “PAP % change vs. baseline” value (inhaled, time 260 min) was 77.4% and 62.0% and 67.4%. For the same compound, the “BP % change vs. baseline” value (inhaled, time 270 min) was 96.6% and 86.8% and 99.2%, the “PAP % change vs. baseline” value (inhaled, time 270 min) was 77.5% and 61.5% and 67.9% and the “BP % change vs. baseline” value (inhaled, time 280 min) was 96.6% and 86.8% and 96.3%. For the same compound, the “PAP % change vs. baseline” value (inhaled, time 280 min) was 77.5% and 63.0% and 68.1%, the “BP % change vs. baseline” value (inhaled, time 290 min) was 97.7% and 86.8% and 94.4% and the “PAP % change vs. baseline” value (inhaled, time 290 min) was 77.3% and 62.5% and 67.8%. The “BP % change vs. baseline” value (inhaled, time 300 min) was 96.6% and 85.1% and 93.4%, the “PAP % change vs. baseline” value (inhaled, time 300 min) was 78.1% and 63.0% and 67.3% and the “BP % change vs. baseline” value (inhaled, time 310 min) was 95.5% and 83.3% and 93.4%. The “PAP % change vs. baseline” value (inhaled, time 310 min) was 76.7% and 60.5% and 68.1%, the “BP % change vs. baseline” value (inhaled, time 320 min) was 95.5% and 81.6% and 92.5% and the “PAP % change vs. baseline” value (inhaled, time 320 min) was 75.6% and 63.2% and 67.7%. The “BP % change vs. baseline” value (inhaled, time 330 min) was 95.5% and 79.8% and 92.5%, the “PAP % change vs. baseline” value (inhaled, time 330 min) was 76.5% and 63.0% and 67.6% and the “duration of action compared to Ventavis” value (PAH minipig model, inhaled) was “more than 6 times”. The “time of maximum effect on PAP” value (after inhaled application (nebulization), comparative example 11 30 μg/kg, Cinaciguat 3 and 10 μg/kg, Riociguat 100 μg/kg, comparative example 3 30 μg/kg) was “around 60 min”, the “% changes in BP vs baseline” value (0 min vs. start inhalation) was 99% and the “% changes in PAP vs baseline” value (0 min vs. start inhalation) was 100% and 99%. The “% changes in BP vs baseline” value (10 min vs. start inhalation) was 99% and 100%, the “% changes in PAP vs baseline” value (10 min vs. start inhalation) was 102% and 99% and the “% changes in BP vs baseline” value (20 min vs. start inhalation) was 96% and 98%. The “% changes in PAP vs baseline” value (20 min vs. start inhalation) was 101% and 97%, the “% changes in BP vs baseline” value (30 min vs. start inhalation) was 94% and 95% and the “% changes in PAP vs baseline” value (30 min vs. start inhalation) was 101% and 97%. The “% changes in BP vs baseline” value (40 min vs. start inhalation) was 91%, the “% changes in PAP vs baseline” value (40 min vs. start inhalation) was 100% and 97% and the “% changes in BP vs baseline” value (50 min vs. start inhalation) was 89% and 90%. The “% changes in PAP vs baseline” value (50 min vs. start inhalation) was 102% and 96%, the “% changes in BP vs baseline” value (60 min vs. start inhalation) was 86% and 88% and the “% changes in PAP vs baseline” value (60 min vs. start inhalation) was 101% and 96%. The “% changes in BP vs baseline” value (70 min vs. start inhalation) was 86% and 85%, the “% changes in PAP vs baseline” value (70 min vs. start inhalation) was 103% and 95% and the “% changes in BP vs baseline” value (80 min vs. start inhalation) was 85% and 86%. The “% changes in PAP vs baseline” value (80 min vs. start inhalation) was 101% and 94%, the “% changes in BP vs baseline” value (90 min vs. start inhalation) was 85% and the “% changes in PAP vs baseline” value (90 min vs. start inhalation) was 102% and 94%. For the same compound, the “% changes in BP vs baseline” value (100 min vs. start inhalation) was 85% and 84%, the “% changes in PAP vs baseline” value (100 min vs. start inhalation) was 103% and 92% and the “% changes in BP vs baseline” value (110 min vs. start inhalation) was 84%. For the same compound, the “% changes in PAP vs baseline” value (110 min vs. start inhalation) was 102% and 94%, the “% changes in BP vs baseline” value (120 min vs. start inhalation) was 85% and 84% and the “% changes in PAP vs baseline” value (120 min vs. start inhalation) was 101% and 92%. The “% changes in BP vs baseline” value (130 min vs. start inhalation) was 85%, the “% changes in PAP vs baseline” value (130 min vs. start inhalation) was 102% and 95% and the “% changes in BP vs baseline” value (140 min vs. start inhalation) was 85%. The “% changes in PAP vs baseline” value (140 min vs. start inhalation) was 101% and 95%, the “% changes in BP vs baseline” value (150 min vs. start inhalation) was 84% and the “% changes in PAP vs baseline” value (150 min vs. start inhalation) was 100% and 92%. The “% changes in BP vs baseline” value (160 min vs. start inhalation) was 85% and 84%, the “% changes in PAP vs baseline” value (160 min vs. start inhalation) was 100% and 91% and the “% changes in BP vs baseline” value (170 min vs. start inhalation) was 86% and 85%. The “% changes in PAP vs baseline” value (170 min vs. start inhalation) was 101% and 91%, the “% changes in BP vs baseline” value (180 min vs. start inhalation) was 86% and the “% changes in PAP vs baseline” value (180 min vs. start inhalation) was 101% and 91%. The “% changes in BP vs baseline” value (190 min vs. start inhalation) was 86% and 84%, the “% changes in PAP vs baseline” value (190 min vs. start inhalation) was 101% and 91% and the “% changes in BP vs baseline” value (200 min vs. start inhalation) was 87% and 83%. The “% changes in PAP vs baseline” value (200 min vs. start inhalation) was 101% and 90%, the “% changes in BP vs baseline” value (210 min vs. start inhalation) was 88% and 84% and the “% changes in PAP vs baseline” value (210 min vs. start inhalation) was 101% and 91%. The “% changes in BP vs baseline” value (220 min vs. start inhalation) was 87%, the “% changes in PAP vs baseline” value (220 min vs. start inhalation) was 99% and 92% and the “% changes in BP vs baseline” value (230 min vs. start inhalation) was 89% and 86%. The “% changes in PAP vs baseline” value (230 min vs. start inhalation) was 102% and 91%, the “% changes in BP vs baseline” value (240 min vs. start inhalation) was 88% and 85% and the “% changes in PAP vs baseline” value (240 min vs. start inhalation) was 99% and 92%. The “% changes in BP vs baseline” value (−5 min vs. start inhalation) was 101% and 96%, the “% changes in PAP vs baseline” value (−5 min vs. start inhalation) was 99% and the “effect on systemic BP” value (inhaled, 30 μg/kg) was “did not show any decrease on systemic BP”. The lung selectivity (inhaled, nominal dose of 100 μg/kg) was “good lung selectivity” and the duration of action (inhaled, Ventavis 10 μg/kg nominal dose, comparative example 11 10, 30 and 100 μg/kg nominal dose, 240 min observation interval) was at least 240 min.
